Legend:
PI3 Kinase α = PI3 Kinase α (Homo sapiens, UniProt P42336); assay: Fluorescence polarization assay for PI3K (PI3 Kinase α); format: biochemical; conditions: diC8-PI(4,5)P2 substrate, 25 μM ATP, one hour at 25° C.
Procedure: Nunc 384 well black polypropylene fluorescent plates were used for PI3K assays. Reactions were quenched by the addition of EDTA to a final concentration of 10 μM. Final reaction volumes were 10 ml. […] Reactions were allowed to proceed for one hour at 25° C. After I hour, GST-tagged GRP1 (general receptor for phosphoinositides) PH domain fusion protein was added to a final concentration of 100 nM, and BODIPY-TMRI(1,3,4,5)P4 (Echelon) was also added to a final concentration of 5 nM. Final sample volumes were 25 μl with a final DMSO concentration of 0.8%. Assay Plates were read on PerkinElmer Envision plate readers with appropriate filters for Tamra [BODIPY-TMRI(1,3,4,5)P4]. Data obtained were used to calculate enzymatic activity and enzyme inhibition by inhibitor compounds.

PI3 Kinase γ = PI3 Kinase γ (Homo sapiens, UniProt P48736); assay: Fluorescence polarization assay for PI3K (PI3 Kinase γ); format: biochemical; conditions: diC8-PI(4,5)P2 substrate, 25 μM ATP, one hour at 25° C.
PI3 Kinase γ, sequence (P48736 whole entry): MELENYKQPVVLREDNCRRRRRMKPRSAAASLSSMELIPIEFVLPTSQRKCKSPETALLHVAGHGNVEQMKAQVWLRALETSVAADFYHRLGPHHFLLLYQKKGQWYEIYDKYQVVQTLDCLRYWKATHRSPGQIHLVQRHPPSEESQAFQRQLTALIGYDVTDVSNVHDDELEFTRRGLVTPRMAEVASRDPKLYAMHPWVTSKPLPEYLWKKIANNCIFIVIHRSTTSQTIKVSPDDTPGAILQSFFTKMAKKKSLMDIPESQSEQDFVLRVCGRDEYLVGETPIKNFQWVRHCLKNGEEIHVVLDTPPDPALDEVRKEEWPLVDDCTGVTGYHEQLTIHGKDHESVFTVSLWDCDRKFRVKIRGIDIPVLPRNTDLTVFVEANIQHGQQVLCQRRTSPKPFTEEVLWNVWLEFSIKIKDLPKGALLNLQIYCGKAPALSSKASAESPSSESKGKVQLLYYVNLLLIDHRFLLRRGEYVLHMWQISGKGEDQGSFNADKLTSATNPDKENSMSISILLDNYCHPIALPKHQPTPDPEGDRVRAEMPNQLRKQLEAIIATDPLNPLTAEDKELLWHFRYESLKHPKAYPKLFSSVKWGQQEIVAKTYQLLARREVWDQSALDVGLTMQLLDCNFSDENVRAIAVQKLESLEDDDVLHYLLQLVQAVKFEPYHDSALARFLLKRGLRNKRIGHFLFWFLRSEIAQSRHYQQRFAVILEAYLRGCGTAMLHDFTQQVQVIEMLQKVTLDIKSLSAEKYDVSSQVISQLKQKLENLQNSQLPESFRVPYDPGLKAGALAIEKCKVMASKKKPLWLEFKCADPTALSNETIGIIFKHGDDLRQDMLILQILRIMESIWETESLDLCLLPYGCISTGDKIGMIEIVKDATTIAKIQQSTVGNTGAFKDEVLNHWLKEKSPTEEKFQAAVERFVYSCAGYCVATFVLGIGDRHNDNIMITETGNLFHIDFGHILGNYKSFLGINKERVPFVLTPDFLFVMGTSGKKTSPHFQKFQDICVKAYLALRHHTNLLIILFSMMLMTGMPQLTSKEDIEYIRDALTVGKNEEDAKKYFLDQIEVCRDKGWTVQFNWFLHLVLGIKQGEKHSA

PI3 Kinase α, sequence (P42336 whole entry): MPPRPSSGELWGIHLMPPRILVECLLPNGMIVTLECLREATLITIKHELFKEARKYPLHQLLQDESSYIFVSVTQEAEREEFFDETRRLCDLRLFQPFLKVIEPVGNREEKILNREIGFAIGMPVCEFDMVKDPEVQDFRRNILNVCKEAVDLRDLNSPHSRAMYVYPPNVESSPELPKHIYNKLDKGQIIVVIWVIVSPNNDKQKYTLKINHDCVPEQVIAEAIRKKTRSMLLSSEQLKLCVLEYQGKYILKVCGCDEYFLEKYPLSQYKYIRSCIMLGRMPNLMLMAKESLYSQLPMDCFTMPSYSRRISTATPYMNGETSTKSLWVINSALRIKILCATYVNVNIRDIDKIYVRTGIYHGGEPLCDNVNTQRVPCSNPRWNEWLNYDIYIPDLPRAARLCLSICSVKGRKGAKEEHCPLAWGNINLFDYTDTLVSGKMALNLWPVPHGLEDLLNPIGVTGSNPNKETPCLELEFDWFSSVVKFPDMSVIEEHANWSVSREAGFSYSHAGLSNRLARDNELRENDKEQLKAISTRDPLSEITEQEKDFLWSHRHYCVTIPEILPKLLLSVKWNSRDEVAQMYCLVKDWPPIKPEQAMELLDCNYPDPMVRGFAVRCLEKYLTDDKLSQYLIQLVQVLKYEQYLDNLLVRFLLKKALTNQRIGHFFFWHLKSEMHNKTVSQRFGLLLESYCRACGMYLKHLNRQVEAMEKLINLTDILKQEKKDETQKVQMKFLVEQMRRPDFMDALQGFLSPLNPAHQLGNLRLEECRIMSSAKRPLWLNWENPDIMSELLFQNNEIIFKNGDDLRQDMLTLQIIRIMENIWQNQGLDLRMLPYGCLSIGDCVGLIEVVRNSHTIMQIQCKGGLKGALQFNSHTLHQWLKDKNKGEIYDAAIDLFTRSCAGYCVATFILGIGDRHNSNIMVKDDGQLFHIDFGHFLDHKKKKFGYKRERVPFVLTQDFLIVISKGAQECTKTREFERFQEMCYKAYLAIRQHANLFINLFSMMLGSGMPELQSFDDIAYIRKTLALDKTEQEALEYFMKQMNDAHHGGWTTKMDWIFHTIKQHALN
PI3 Kinase α, sequence (P27986 whole entry partner): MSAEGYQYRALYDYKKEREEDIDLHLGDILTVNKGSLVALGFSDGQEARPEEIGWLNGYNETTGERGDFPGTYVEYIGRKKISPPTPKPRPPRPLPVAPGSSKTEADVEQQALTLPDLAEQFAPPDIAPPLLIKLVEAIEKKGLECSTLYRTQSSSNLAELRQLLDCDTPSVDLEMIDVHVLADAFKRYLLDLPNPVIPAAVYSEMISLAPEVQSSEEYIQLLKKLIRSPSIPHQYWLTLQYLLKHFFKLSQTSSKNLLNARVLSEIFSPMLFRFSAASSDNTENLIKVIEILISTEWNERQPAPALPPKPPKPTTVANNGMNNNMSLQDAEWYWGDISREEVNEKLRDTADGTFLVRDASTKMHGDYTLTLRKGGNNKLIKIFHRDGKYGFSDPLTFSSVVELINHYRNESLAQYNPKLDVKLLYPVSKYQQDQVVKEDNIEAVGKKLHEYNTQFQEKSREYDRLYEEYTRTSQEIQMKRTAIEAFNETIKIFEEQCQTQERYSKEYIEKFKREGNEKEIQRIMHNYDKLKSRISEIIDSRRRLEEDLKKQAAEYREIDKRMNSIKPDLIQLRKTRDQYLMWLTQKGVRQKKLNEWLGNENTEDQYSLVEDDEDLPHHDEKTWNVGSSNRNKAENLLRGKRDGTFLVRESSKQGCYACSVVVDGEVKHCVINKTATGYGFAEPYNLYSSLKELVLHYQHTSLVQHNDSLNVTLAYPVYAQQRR

| IC50 (PI3 Kinase α) [nM] | IC50 (PI3 Kinase γ) [nM] | Structure (SMILES) |
| --- | --- | --- |
| < 3.1 | 25 | CCn1nnc2c(N3CCOCC3)nc(-c3ccc(NC(=O)Nc4ccc(C(=O)NCCN5CCN(C)CC5)cc4)cc3)nc21 [Example 49, 4-({[4-(3-ethyl-7-morpholin-4-yl-3H-[1,2,3]triazolo[4,5-d]pyrimidin-5-yl)phenyl]carbamoyl}amino)-N-[2-(4-methylpiperazin-1-yl)ethyl]benzamide] |
| 60.5 | 873 | Nc1ccccc1C(=O)N1CC(n2nnc3c(N4CCOCC4)nc(-c4cccc(O)c4)nc32)C1 [Example 126, (2-amino-phenyl)-{3-[5-(3-hydroxy-phenyl)-7-morpholin-4-yl-[1,2,3]triazolo[4,5-d]pyrimidin-3-yl]-azetidin-1-yl}-methanone] |
| 2080 | 12000 | CC(C)(C)OC(=O)N1CC(Cn2nnc3c(N4CCOCC4)nc(-c4ccc(N)cc4)nc32)C1 [Example 187, tert-Butyl 3-{[5-(4-aminophenyl)-7-morpholin-4-yl-3H-[1,2,3]triazolo[4,5-d]pyrimidin-3-yl]methyl}azetidine-1-carboxylate] |
| 200 | 402 | CN(C)CCCOc1ccc(CN2CCN(CCn3nnc4c(N5CCOCC5)nc(-c5cccc(O)c5)nc43)CC2)cc1 [Example 110, 3-{3-[2-(4-{4-[3-(dimethylamino)propoxy]benzyl}piperazin-1-yl)ethyl]-7-morpholin-4-yl-3H-[1,2,3]triazolo[4,5-d]pyrimidin-5-yl}phenol] |
| 282 | 1380 | O=C(NCCN1CCCC1)c1ccc(Cn2nnc3c(N4CCOCC4)nc(-c4cccc(O)c4)nc32)cc1 [Example 213, 4-{[5-(3-hydroxyphenyl)-7-morpholin-4-yl-3H-[1,2,3]triazolo[4,5-d]pyrimidin-3-yl]methyl}-N-(2-pyrrolidin-1-ylethyl)benzamide] |

Further lines, the molecule ahead of its results:

| Structure (SMILES) | IC50 (PI3 Kinase α) [nM] | IC50 (PI3 Kinase γ) [nM] |
| --- | --- | --- |
| Oc1cncc(-c2nc(N3CCOCC3)c3nnn(C4CCN(Cc5ccc(-c6ccncc6)cc5)CC4)c3n2)c1 [Example 31, 5-{7-morpholin-4-yl-3-[1-(4-pyridin-4-ylbenzyl)piperidin-4-yl]-3H-[1,2,3]triazolo[4,5-d]pyrimidin-5-yl}pyridin-3-ol] | 298 | 2280 |
| O=C(Cc1ccccc1)N1CCN(CCn2nnc3c(N4CCOCC4)nc(-c4cccc(O)c4)nc32)CC1 [Example 104, 3-(7-morpholin-4-yl-3-{2-[4-(phenylacetyl)piperazin-1-yl]ethyl}-3H-[1,2,3]triazolo[4,5-d]pyrimidin-5-yl)phenol] | 1170 | 3030 |
| CCCCN1CCN(CCn2nnc3c(N4CCOCC4)nc(-c4cccc(O)c4)nc32)CC1 [Example 107, 3-{3-[2-(4-butylpiperazin-1-yl)ethyl]-7-morpholin-4-yl-3H-[1,2,3]triazolo[4,5-d]pyrimidin-5-yl}phenol] | 1040 | 2490 |
| Oc1cccc(-c2nc(N3CCOCC3)c3nnn(C4CCN(Cc5ccccc5)CC4)c3n2)c1 [Example 1, 3-[3-(1-benzylpiperidin-4-yl)-7-morpholin-4-yl-3H-[1,2,3]triazolo[4,5-d]pyrimidin-5-yl]phenol] | 121 | 667 |
| O=C(c1cccc(-n2nnc3c(N4CCOCC4)nc(-c4cccc(O)c4)nc32)c1)N1CCC(N2CCCC2)CC1 [Example 120, 3-(7-morpholin-4-yl-3-{3-[(4-pyrrolidin-1-ylpiperidin-1-yl)carbonyl]phenyl}-3H-[1,2,3]triazolo[4,5-d]pyrimidin-5-yl)phenol] | 15.5 | 290 |
| CN(C)c1ccc(NC(=O)Nc2ccc(-c3nc(N4CCOCC4)c4nnn(CC(F)(F)F)c4n3)cc2)cc1 [Example 137, 1-[4-(dimethylamino)phenyl]-3-{4-[7-morpholin-4-yl-3-(2,2,2-trifluoroethyl)-3H-[1,2,3]triazolo[4,5-d]pyrimidin-5-yl]phenyl}urea] | 13 | 30.5 |

Reference: patent US20090181963A1, “3H-[1,2,3]TRIAZOLO[4,5-D]PYRIMIDINE COMPOUNDS, THEIR USE AS mTOR KINASE AND PI3 KINASE INHIBITORS, AND THEIR [sequence]” (Wyeth, priority 2008, published 2009)
